Active and inactive are the calls of the source. The rule behind the calls is not given here.
Species on record: Homo sapiens
Assay: Binding affinity to arylsulfatase assessed as fluorescence quenching at 10 uM at pH 7.5 after 1.5 hrs by fluorescence spectrophotometry

**Q.** How did the Activity turn out when CN(C)c1cccc2c(S(=O)(=O)NCC(O)c3ccc(OS(=O)(=O)O)cc3)cccc12 (stereo unspecified) was run?
**A.** The Activity was “inactive”.

Reference: ChEMBL document CHEMBL2057079, “Activity-based fluorescent probes for monitoring sulfatase activity” (Bioorg Med Chem Lett, 2012)
